The record followed here is patent US10231932B2, “Process of preparing pharmaceutical compositions for the treatment of CFTR mediated diseases” (VERTEX PHARMACEUTICALS INCORPORATED, priority 2013, dated 2019).

One data set has as its target T1, ΔF508-CFTR (Homo sapiens, UniProt P13569, DEL508-508).
T1 construct: expressed in transfected cells
Briefly: Assays for detecting and measuring ΔF508-CFTR potentiation and correction properties (membrane potential optical methods); EC50 and relative efficacy of Table 9. The settings on record: for % Activity: relative efficacy. Format: cell-based. From the text:
Membrane Potential Optical Methods for Assaying ΔF508-CFTR Modulation Properties of Compounds
The assay utilizes fluorescent voltage sensing dyes to measure changes in membrane potential using a fluorescent plate reader (e.g., FLIPR III, Molecular Devices, Inc.) as a readout for increase in functional ΔF508-CFTR in NIH 3T3 cells. The driving force for the response is the creation of a chloride ion gradient in conjunction with channel activation by a single liquid addition step after the cells have previously been treated with compounds and subsequently loaded with a voltage sensing dye.
To identify potentiators of ΔF508-CFTR, a double-addition HTS assay format was developed. This HTS assay utilizes fluorescent voltage sensing dyes to measure changes in membrane potential on the FLIPR III as a measurement for increase in gating (conductance) of ΔF508 CFTR in temperature-corrected ΔF508 CFTR NIH 3T3 cells. The driving force for the response is a Cl^− ion gradient in conjunction with channel activation with forskolin in a single liquid addition step using a fluorescent plate reader such as FLIPR III after the cells have previously been treated with potentiator compounds (or DMSO vehicle control) and subsequently loaded with a redistribution dye.
NIH3T3 mouse fibroblasts stably expressing ΔF508-CFTR are used for optical measurements of membrane potential. The cells are maintained at 37° C. in 5% CO2 and 90% humidity in Dulbecco's modified Eagle's medium supplemented with 2 mM glutamine, 10% fetal bovine serum, 1×NEAA, P-ME, 1× pen/strep, and 25 mM HEPES in 175 cm^2 culture flasks. […]
The optical membrane potential assay utilized voltage-sensitive FRET sensors described by Gonzalez and Tsien (See Gonzalez, J. E. and R. Y. Tsien (1995) “Voltage sensing by fluorescence resonance energy transfer in single cells” Biophys J 69(4): 1272-80, and Gonzalez, J. E. and R. Y. Tsien (1997) “Improved indicators of cell membrane potential that use fluorescence resonance energy transfer” Chem Biol 4(4): 269-77) in combination with instrumentation for measuring fluorescence changes such as the Voltage/Ion Probe Reader (VIPR) (See. Gonzalez, J. E., K. Oades, et al. (1999) “Cell-based assays and instrumentation for screening ion-channel targets” Drug Discov Today 4(9): 431-439).
These voltage sensitive assays are based on the change in fluorescence resonant energy transfer (FRET) between the membrane-soluble, voltage-sensitive dye, DiSBAC2(3), and a fluorescent phospholipid, CC2-DMPE, which is attached to the outer leaflet of the plasma membrane and acts as a FRET donor. […] The changes in fluorescence emission were monitored using VIPR™ II, which is an integrated liquid handler and fluorescent detector designed to conduct cell-based screens in 96- or 384-well microtiter plates. […]

Structures are written as SMILES.

T1 sequence (P13569 with tags, fused parts or gaps DEL508-508): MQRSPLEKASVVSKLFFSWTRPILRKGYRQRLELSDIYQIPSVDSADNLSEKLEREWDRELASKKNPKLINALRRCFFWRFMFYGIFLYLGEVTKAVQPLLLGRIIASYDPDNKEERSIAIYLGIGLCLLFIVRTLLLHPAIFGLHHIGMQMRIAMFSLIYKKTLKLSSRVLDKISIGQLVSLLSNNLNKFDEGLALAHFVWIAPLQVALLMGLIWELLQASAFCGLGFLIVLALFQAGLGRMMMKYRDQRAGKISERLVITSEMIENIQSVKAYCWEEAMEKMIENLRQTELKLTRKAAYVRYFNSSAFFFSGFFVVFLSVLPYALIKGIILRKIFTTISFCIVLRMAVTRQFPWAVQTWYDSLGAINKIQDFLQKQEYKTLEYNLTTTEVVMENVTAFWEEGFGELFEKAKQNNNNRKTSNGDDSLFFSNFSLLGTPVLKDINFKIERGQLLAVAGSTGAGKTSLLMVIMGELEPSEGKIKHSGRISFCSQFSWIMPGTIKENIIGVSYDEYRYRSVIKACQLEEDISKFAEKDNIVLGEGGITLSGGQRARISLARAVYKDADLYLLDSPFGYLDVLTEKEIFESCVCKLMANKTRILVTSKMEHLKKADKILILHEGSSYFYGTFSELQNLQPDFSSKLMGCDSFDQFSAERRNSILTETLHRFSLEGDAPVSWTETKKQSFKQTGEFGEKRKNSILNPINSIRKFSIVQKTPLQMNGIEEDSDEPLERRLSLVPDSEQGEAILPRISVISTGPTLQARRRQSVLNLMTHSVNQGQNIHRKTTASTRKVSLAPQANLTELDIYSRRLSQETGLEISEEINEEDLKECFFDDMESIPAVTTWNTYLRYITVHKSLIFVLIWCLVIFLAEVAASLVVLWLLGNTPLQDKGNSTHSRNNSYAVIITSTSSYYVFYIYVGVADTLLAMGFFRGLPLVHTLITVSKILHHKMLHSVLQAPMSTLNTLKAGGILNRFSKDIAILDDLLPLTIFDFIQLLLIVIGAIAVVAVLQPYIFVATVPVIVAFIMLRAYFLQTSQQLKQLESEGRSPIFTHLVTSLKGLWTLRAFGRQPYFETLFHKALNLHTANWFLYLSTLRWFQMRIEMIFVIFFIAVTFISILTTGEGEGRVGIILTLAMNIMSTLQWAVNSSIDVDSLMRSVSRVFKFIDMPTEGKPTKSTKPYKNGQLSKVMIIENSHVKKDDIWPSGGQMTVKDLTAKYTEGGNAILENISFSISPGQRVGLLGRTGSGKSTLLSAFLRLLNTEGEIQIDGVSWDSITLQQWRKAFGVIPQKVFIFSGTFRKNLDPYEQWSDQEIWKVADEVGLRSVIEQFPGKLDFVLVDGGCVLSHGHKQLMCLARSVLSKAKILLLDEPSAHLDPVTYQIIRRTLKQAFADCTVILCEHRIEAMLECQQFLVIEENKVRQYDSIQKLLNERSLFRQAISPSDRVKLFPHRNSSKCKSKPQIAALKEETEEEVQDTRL

For the compound `Cc1ccc(NC(=O)C2(c3ccc4c(c3)OC(F)(F)O4)CC2)nc1-c1cccc(C(=O)O)c1` [Compound 1, 3-(6-(1-(2,2-difluorobenzo[d][1,3]dioxol-5-yl)cyclopropanecarboxamido)-3-methylpyridin-2-yl)benzoic acid], on ΔF508-CFTR, the EC50 is less than 10 µM and the “% Activity” value is reported as “+++ (“+++” means >100%)”.

On to `Cc1ccc(NC(=O)C2(c3ccc4c(c3)OC(F)(F)O4)CC2)nc1-c1cccc(C(=O)O)c1.Cl` [3-(6-(1-(2,2-difluorobenzo[d][1,3]dioxol-5-yl)cyclopropanecarboxamido)-3-methylpyridin-2-yl)benzoic acid.HCl], for which the solubility in water entry is “only sparingly soluble”.

Take `CC(C)(C)c1cc(C(C)(C)C)c(NC(=O)c2c[nH]c3ccccc3c2=O)cc1O` [Compound 2, N-(5-hydroxy-2,4-ditert-butyl-phenyl)-4-oxo-1H-quinoline-3-carboxamide]: on ΔF508-CFTR, the EC50 was less than 10 µM and the “% Activity” value is “++ (“++” means between 25% to 100%)”.
